According to article PMC4841536, “Characterization of the Anti-HCV Activities of the New Cyclophilin Inhibitor STG-175” (PLoS ONE, 2016):
Where “and” joins values, the source holds several entries; their conditions need not be identical. Equal entries are not always repeated. Where two headings read alike, the source gives them in different places.

Legend:
[1] = biological target: T1, Human recombinant CypA (Homo sapiens, UniProt P62937); assay: α-chymotrypsin-coupled PPIase assay, CypA isomerase activity; format: biochemical; settings: 5°C, 10 concentrations 0.05–1000 nM; read-out: IC50, neutralization of the isomerase activity of CypA
T1 construct: purchased Atgen
Experimental: Inhibition of CypA and CypD isomerase activities were quantified using a α-chymotrypsin-coupled assay adapted to a 96-well plate format. Human recombinant CypA or CypD (Atgen) was dissolved to 10 nM in PPIases buffer (50 mM Hepes, 100 mM NaCl, 1 mg/ml bovine serum albumin, 1 mg/ml α-chymotrypsin; pH 8). Succinyl-AAPF-pNA peptide substrate (Sigma) was dissolved to 3.2 mM in LiCl/trifluoroethanol. Each CypI was prepared at 10 concentrations in DMSO, then diluted into CypA/D PPIase buffer to 0.05–1000 nM. Incubations were performed at 5°C. Ninety five μL of reaction mix was added to 5 μL peptide in 96-wells and OD405 nm measured at 6-sec intervals for 6 min using a Biotek Synergy H4 plate reader. Data were fitted with Graphpad Prism 6.0 to acquire first-order rate constants, which were calculated by subtracting the rate constant from uncatalyzed reactions (no CypA/D). […]
(§1) The inhibition of the isomerase activities of CypA and CypD were measured with 10 increasing concentrations of STG-175 to quantify IC50 values.
Fig 1 Anti-PPIase and immunosuppressive activities of STG-175. […] Inhibition of CypA (B) and CypD (C) isomerase activities were assessed using the α-chymotrypsin-coupled assay. […] D. IL-2 promoter activation upon T-cell stimulation was determined using an engineered Jurkat T-cell line, which expresses betagalactosidase. […] The Y-axis values are expressed as percentage of activity. […]

[2] = biological target: T2, Human recombinant CypD (Homo sapiens, UniProt P30405); assay: α-chymotrypsin-coupled PPIase assay, CypD isomerase activity; format: biochemical; settings: 5°C, 10 concentrations 0.05–1000 nM
T2 construct: purchased Atgen
Experimental: Inhibition of CypA and CypD isomerase activities were quantified using a α-chymotrypsin-coupled assay adapted to a 96-well plate format. Human recombinant CypA or CypD (Atgen) was dissolved to 10 nM in PPIases buffer (50 mM Hepes, 100 mM NaCl, 1 mg/ml bovine serum albumin, 1 mg/ml α-chymotrypsin; pH 8). Succinyl-AAPF-pNA peptide substrate (Sigma) was dissolved to 3.2 mM in LiCl/trifluoroethanol. Each CypI was prepared at 10 concentrations in DMSO, then diluted into CypA/D PPIase buffer to 0.05–1000 nM. Incubations were performed at 5°C. Ninety five μL of reaction mix was added to 5 μL peptide in 96-wells and OD405 nm measured at 6-sec intervals for 6 min using a Biotek Synergy H4 plate reader. Data were fitted with Graphpad Prism 6.0 to acquire first-order rate constants, which were calculated by subtracting the rate constant from uncatalyzed reactions (no CypA/D). The catalytic rate constants were plotted as a function of inhibitor concentration to obtain IC50s.
as §1
Fig 1 Anti-PPIase and immunosuppressive activities of STG-175. A. Structures of cyclophilin inhibitors. Inhibition of CypA (B) and CypD (C) isomerase activities were assessed using the α-chymotrypsin-coupled assay. Each test compound was prepared at 10 concentrations (0.05–1000 nM). All solutions were equilibrated, and reactions conducted at 5°C. Reactions were initiated by mixing 95 μL reaction mix with 5 μL of the peptide to be cleaved and measuring OD405 nm at 6-sec intervals for 6 min. […] Enzyme catalyzed rate constants were calculated by subtracting the rate constant from uncatalyzed reactions (no CypA/D), and catalytic rate constants plotted as a function of inhibitor concentration to obtain IC50s. […] D. IL-2 promoter activation upon T-cell stimulation was determined using an engineered Jurkat T-cell line, which expresses betagalactosidase. […] The Y-axis values are expressed as percentage of activity. Data expressed as EC50s are representative of two independent experiments.

[3] = system: IL-2 promoter activation in Jurkat T-cell line; assay: In vitro assay for immunosuppression: IL-2 promoter activation in engineered Jurkat T-cell line (betagalactosidase); format: cell-based; settings: Homo sapiens; Jurkat cells activated with PMA 10 ng/mL, 24 h; read-out: IC50, inhibition of IL-2 production (immunosuppressive activity)
Experimental: IL-2 promoter activation upon T-cell stimulation was determined using an engineered Jurkat T-cell line, which expresses betagalactosidase when exposed to chemical non-specific factors like […] (PMA) and phytohematogglutinin (PHA) as described previously. DMSO or STG-175 were added together with PMA (10 ng/mL) to 1 million of Jurkat cells (triplicates). Betagalactosidase activity in cell lysates was quantified by fluorescence (460 nm) after 24 h.
Fig 1 Anti-PPIase and immunosuppressive activities of STG-175. A. Structures of cyclophilin inhibitors. Inhibition of CypA (B) and CypD (C) isomerase activities were assessed using the α-chymotrypsin-coupled assay. Each test compound was prepared at 10 concentrations (0.05–1000 nM). All solutions were equilibrated, and reactions conducted at 5°C. Reactions were initiated by mixing 95 μL reaction mix with 5 μL of the peptide to be cleaved and measuring OD405 nm at 6-sec intervals for 6 min. Data were fitted with Graphpad Prism 6.0 to obtain first-order rate constants. Enzyme catalyzed rate constants were calculated by subtracting the rate constant from uncatalyzed reactions (no CypA/D), and catalytic rate constants plotted as a function of inhibitor concentration to obtain IC50s. […] D. IL-2 promoter activation upon T-cell stimulation was determined using an engineered Jurkat T-cell line, which expresses betagalactosidase. Jurkat cells (1 million) were activated with PMA (10 ng/mL). […] The Y-axis values are expressed as percentage of activity. Data expressed as EC50s are representative of two independent experiments.
The formation of this trimolecular complex inhibits T cell proliferation by blocking the signaling pathway leading to IL-2 production upon T-cell stimulation. The immunosuppressive activity of STG-175 was evaluated by inhibition of the IL-2 production in Jurkat cells.

[4] = system: subgenomic Con1 (GT1b) replicon in Huh-7 cells; format: cell-based, hepatitis C virus; settings: for passage at which resistant variants emerged (CypI comparison): Fig 3C
Experimental: Huh-7 cell expressing subgenomic Con1 (GT1b) replicon were seeded in a 10 cm dish at a density of 3 × 10^5 cells per culture flask in complete DMEM (with G418) with STG-175 or selected drugs. Cells were grown until they reached 90% confluence, trypsinized and re-seeded at the same cell concentration in a new 10-cm dish with the same drug concentration. Cells were passaged 22 times in the presence of drugs. At each passage, sample of cells were collected, RNA extracted according to the manufacturer's instructions and analyzed by RT-PCR for HCV RNA levels.
(§2) Fig 3 Replicon clearance, replication rebound and resistance analyses. […] Then drugs were removed to allow viral replication rebound to occur. At each passage, samples of cells were collected, RNA extracted and analyzed by RT-PCR for HCV RNA levels. B. Emergence of resistance: Con1 replicon Huh-7 cells were passaged 22 times in the absence or presence of STG-175 or selected DAAs. At each passage, sample of cells were collected, RNA extracted and analyzed by RT-PCR for HCV RNA levels. C. […] Data are expressed as number of HCV RNA copies per cell. […] Data are expressed as mean of relative light units and calculated EC50s are presented. […] E. Degree of resistance of D320E and Y321N Con1 variants: Left panel. Wild-type (WT), D320E and D320/Y321N NS5A Con1 RNA were electroporated into Huh7.5.1 cells and replication monitored over 8 days by quantifying the levels of intracellular HCV RNA. Right panel. Same as just above except that increasing concentrations of STG-175 were added at the time of the electroporation. […] STG-175 is taken as the substance from the printed x-axis title 'STG-175 in Log nM'.
We then examined the development of resistance to STG-175. GT1b Con1 sub-genomic replicon cells were grown in the presence of STG-175 (0.25 and 1 μM), telaprevir (2.5 and 10 μM), boceprevir (2.5 and 10 μM), daclatasvir 100 pM and 1 nM) or a combination of STG-175 (0.25 μM) with either telaprevir (2.5 μM), boceprevir (2.5 μM) or daclatasvir (100 pM) for 22 successive passages. At each passage, fresh drug was added and a sample of cells was taken to quantify HCV RNA levels by RT-qPCR.

[5] = system: wild-type Con1 GT1b replicon; assay: Electroporated Con1 RNA replication in Huh7.5.1 cells (RT-qPCR), wild-type; format: cell-based; settings: Hepatitis C virus, Huh-7.5.1, 192 h, read-out: EC50 GT1b WT
Description: (§3) The GT1b subgenomic firefly luciferase reporter replicon pFK-I389/NS3–3 was provided by R. Bartenschlager. The GT1B subgenomic NS3, NS5A and NS5B mutants were created via homologous recombination using the In-Fusion HD Cloning kit (Clontech) as we described previously. […] The in vitro transcription of wild-type and mutant Con1 RNA was accomplished using the T7 MEGAscript kit (Ambion) by following the manufacturer’s instructions. In vitro-transcribed RNAs were introduced into Huh7.5.1 cells by electroporation. Trypsinized cells were washed twice and resuspended in phosphate-buffered saline (PBS) (calcium-free and magnesium-free) at 1x 10^7 cells per ml. Ten micrograms of RNA for each mutant was mixed with 0.4 mL of cells in a 4-mm cuvette, and a Bio-Rad Gene Pulser system was used to deliver a single pulse at 0.27 kV, 100 ohms, and 960 μF. Cells were then plated in 12-well dishes. RNA transfection efficiency and HCV subgenomic replication were assessed by reverse transcription-quantitative PCR (RT-qPCR) and presented as genome equivalents (GE) per microgram of total RNA as described previously. We measured by RT-qPCR the replication of wild-type, STG-175-, NS5Ai-, NS3i- and NS5Bi-resistant mutants in the presence of increasing concentrations of SGT-175, daclatasvir, telaprevir, boceprevir and sofosbuvir over a period of 8 days.
as §2
To determine whether the D320E and Y321N substitutions truly render HCV resistant to STG-175, they were introduced into wild-type Con1 replicon as we described previously. Introduction of the substitutions was verified by sequencing. In vitro-transcribed wild-type, D320E and D320E/Y321N HCV RNAs were then electroporated into Huh7.5.1 cells and viral replication assessed by RT-qPCR and presented as GE per microgram of total RNA as we described previously. […] We then analyzed the replication of wild-type, D320E and D320E/Y321N in the presence of increasing concentrations of SGT-175 over a period of 8 days.
Fig 5 Cross-resistance analyses.

[6] = system: D320E NS5A Con1 GT1b replicon; assay: microbe, parasite or virus in culture; format: cell-based, hepatitis C virus; settings: Hepatitis C virus, GT1B, Huh-7.5.1, 192 h, read-out: EC50 D320E NS5A
Description: as §3
(§4) D320E and D320E/Y321N NS5A substitutions were introduced into wild-type Con1 GT1 replicon as we described previously. Con1-NS5A-D320E, and Con1-NS5A-D320E/Y321N were generated using the following forward and reverse phosphorylated (p) primer sets, respectively: (p)[…] and (p)[…], and (p)[…] and (p)[…]. PCR products were circularized with Quick T4 DNA ligase (NEB) for 5 min and transformed into NEB 10-beta competent cells. The NS5A gene was sequenced to confirm the introduced substitutions.
as §2
(§5) To determine whether the D320E and Y321N substitutions truly render HCV resistant to STG-175, they were introduced into wild-type Con1 replicon as we described previously. Introduction of the substitutions was verified by sequencing.

[7] = system: D320E/Y321N NS5A Con1 GT1b replicon; assay: microbe, parasite or virus in culture; format: cell-based, hepatitis C virus; settings: Hepatitis C virus, GT1B, Huh-7.5.1, 192 h, read-out: EC50 D320E/Y321N NS5A
Description: as §3, §4, §2, §5

[8] = system: HCV GT4a subgenomic replicon ED43/SG-Feo; parameters: method as in PMID 24687498; settings: cited from earlier work

T2 sequence (P30405 30-207): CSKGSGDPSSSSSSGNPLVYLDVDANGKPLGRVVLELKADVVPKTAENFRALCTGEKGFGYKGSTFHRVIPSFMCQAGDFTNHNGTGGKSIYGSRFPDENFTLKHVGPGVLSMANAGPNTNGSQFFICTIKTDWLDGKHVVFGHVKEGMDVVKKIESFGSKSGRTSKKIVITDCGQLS
T1 sequence (P62937 whole entry): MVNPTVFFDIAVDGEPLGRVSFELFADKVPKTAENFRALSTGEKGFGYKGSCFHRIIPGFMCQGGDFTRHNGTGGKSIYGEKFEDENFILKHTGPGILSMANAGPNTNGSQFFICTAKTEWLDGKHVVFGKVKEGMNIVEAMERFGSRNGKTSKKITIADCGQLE

Row | SMILES | IC50 [1] | IC50 ([2]; read-out: IC50, neutralization of the isomerase activity of CypD) | IC50 [3] | passage at which resistant variants emerged (CypI comparison) ([4]; 0.25 μM of drug selection) | passage at which resistance began ([4]; 1 μM drug pressure, first account (Fig 3B)) | passage at which resistant variants emerged (CypI comparison) ([4]; 1 μM of drug selection) | IC50 ([2]; IC50, neutralization of the isomerase activity of CypD) | passage at which resistance began ([4]; 2.5 μM) | passage at which resistance began ([4]; 10 μM) | passages until development of HCV resistance, DAA alone ("instead of" comparison) ([4]; DAA alone, compared with combination) | EC50 [5] | EC50 [6] | EC50 [7] | activity against GT4a [8]
1 | C/C=C/C[C@@H](C)[C@@H](O)[C@H]1C(=O)N[C@@H](CC)C(=O)N(C)[C@H](C)C(=O)N(CC)[C@@H](C(C)C)C(=O)N[C@@H](C(C)C)C(=O)N(C)[C@@H](CC(C)C)C(=O)N[C@@H](C)C(=O)N[C@H](C)C(=O)N(C)[C@@H](CC(C)C)C(=O)N(C)[C@@H](CC(C)C)C(=O)N(C)[C@@H](C(C)C)C(=O)N1C [ALV, alisporivir] | 1.7 nM | 3.4 nM | 85.7 nM | 15 passage | 16 passage | 17 passage | – | – | – | – | – | – | – | –
2 | C/C=C/C[C@@H](C)[C@@H](O)[C@H]1C(=O)N[C@@H](CC)C(=O)N(C)[C@H](SCCN(C)C)C(=O)N(C)[C@@H](CC(C)(C)O)C(=O)N[C@@H](C(C)C)C(=O)N(C)[C@@H](CC(C)C)C(=O)N[C@@H](C)C(=O)N[C@H](C)C(=O)N(C)[C@@H](CC(C)C)C(=O)N(C)[C@@H](CC(C)C)C(=O)N(C)[C@@H](C(C)C)C(=O)N1C [SCY-635] | – | – | 38.6 nM | – | – | – | 7.1 nM and 7.2 nM | – | – | – | – | – | – | –
3 | CC(C)(C)NC(=O)N[C@H](C(=O)N1C[C@H]2[C@@H]([C@H]1C(=O)NC(CC1CCC1)C(=O)C(N)=O)C2(C)C)C(C)(C)C (stereo partly drawn) [boceprevir] | – | – | – | – | – | – | – | 7 passage | 10 passage | 7 passages | 138 nM | 92.7 nM | 129 nM | inactive
